Literature values, collected in patent publication US20260144779A1, “MODIFIED RELEASE PHARMACEUTICAL FORMULATIONS COMPRISING DEFERIPRONE” (CHIESI FARMACEUTICI S.P.A., priority 2022, published 2026).

Details: in vivo

Half-life: 2 to 3 h
Compound: Cc1c(O)c(=O)ccn1C [Deferiprone, 3-hydroxy-1,2-dimethylpyridin-4-one]
